Test results reported in patent US9205089B2, “Layer processing for pharmaceuticals” (Massachusetts Institute of Technology, priority 2011, dated 2015).
Values belong to the compound of their own block, whether it stands above or below them.

Columns and labels:
Assay type in all cases: physicochemical
[1] = DSC glass transition of rapid quench 50% ACM layers; conditions: 50% ACM loading, DSC 10° C./min
Procedure: All analyses were carried out in triplicate.
Most thin layer drug products are initially amorphous, but tend to crystallize slowly over time. Time and material consuming storage experiments are usually required to study the stability of amorphous drug candidate. It is necessary to predict the amorphous stability of drug candidates early in the formulation process. However, the glass transition temperature of the polymer is masked by the melting peak of the drug and little extra information can be extracted. The DSC heating curve for a sample quench cooled after being melted gave information on the glass transition temperature, the crystallisation exotherm, and the melting endotherm (FIG. 21). Samples were prepared by melting in closed DSC pans from R.T. to 200° C. at a rate of 10° C./min and subsequently cooled to −10° C. at a cooling rate of 10° C./min. The pure ACM phases were well studied by DSC; the amorphous form a glass transition peak at 24.8° C., a crystallization peak between 65° C. to 100° C., a solid state transition at about 130° C. from Form III to Form II, and a melting peak for Form II at about 158° C.

[2] = Crystallization time of ACM in layers with different excipients; conditions: 50% ACM layers
[3] = Solvent inspection of dried layers after storage in desiccator overnight
Procedure: (§1) Water content was measured using a […] volumetric KF titration from Mettler Toledo. […] […] drug purity was verified by Agilent […] series high performance liquid chromatography (HPLC). All analyses were carried out in triplicate. […] In order to confirm the chemical stability of the drug, HPLC was used. Different experiments were carried out to examine the level of degradation of aliskiren as the drying temperature and time increased. […] The highest allowable drying temperature was set to be 70° C. At 70° C., 60 min was the minimum drying time required to have layers that peel easily and that contain solvent content under regulatory requirements (ethanol<0.5% and water %<0.5%). The layers were stored in a vacuum desiccator overnight to remove excess solvent, and then sealed under vacuum for storage and further characterization.

[4] = Stability test of […]/HPMC thin layer tablets stored at 40° C., 75% R.H. (HPLC); conditions: Pure ALISKIREN (starting drug substance)
Procedure: Tablet forming was done by Instron and a force of up to 25 kN (9 mm diameter die) was recorded. The as-made thin layer tablets are then coated by Opadry AMB for 60 min, with the final coating taking up 10% of the tablet weight. Every 30 tablets were stored in a plastic vial of about 40 ml in volume together with a small standard drying bag. Vials were sealed using aluminum foil and placed at 40° C. for 75% R.H. for 1 month or 3 months. Samples of Aliskiren/HPMC thin layer tablets were tested by HPLC after peeling off the blue coating materials to avoid cross contamination. […] Water content was measured using a […] volumetric KF titration from Mettler Toledo. […] drug purity was verified by Agilent […] series high performance liquid chromatography (HPLC). All analyses were carried out in triplicate. […] The as-obtained tablets were then coated by Opadry AMB and placed at 40° C. for 75% R.H. for 1-month or 3-months stability tests.

[5] = HPLC purity of aliskiren in Aliskiren/HPMC layers under different drying conditions
Procedure: as §1

Tg [1]: 24.8 °C | Crystallization time [2]: <6 h
SMILES: CC(=O)Nc1ccc(O)cc1 [ACM only, Acetaminophen]

Solvent inspection (<0.5%) after stored in dessicator overnight ([3]; drying 30° C., 180 min): Yes | Solvent inspection (<0.5%) after stored in dessicator overnight ([3]; drying 50° C., 90 min): Yes | Solvent inspection (<0.5%) after stored in dessicator overnight ([3]; drying 50° C., 180 min): Yes | Solvent inspection (<0.5%) after stored in dessicator overnight ([3]; drying 70° C., 60 min): Yes | Solvent inspection (<0.5%) after stored in dessicator overnight ([3]; drying 70° C., 90 min): Yes | Purity of ALISKIREN [4]: 99.6% | ALISKIREN purity % ([5]; drying 30° C., 180 min): 99.6% | One single impurity >0.2% ([5]; drying 30° C., 180 min): No | ALISKIREN purity % ([5]; drying 50° C., 90 min): 99.5% | One single impurity >0.2% ([5]; drying 50° C., 90 min): No | ALISKIREN purity % ([5]; drying 50° C., 180 min): 99.5% | One single impurity >0.2% ([5]; drying 50° C., 180 min): No | ALISKIREN purity % ([5]; drying 70° C., 30 min): 99.5% | One single impurity >0.2% ([5]; drying 70° C., 30 min): No | ALISKIREN purity % ([5]; drying 70° C., 60 min): 99.3% | One single impurity >0.2% ([5]; drying 70° C., 60 min): No | ALISKIREN purity % ([5]; drying 70° C., 90 min): 99.2% | One single impurity >0.2% ([5]; drying 70° C., 90 min): No | ALISKIREN purity % ([5]; drying 90° C., 30 min): 98.8% | One single impurity >0.2% ([5]; drying 90° C., 30 min): Yes
SMILES: COCCCOc1cc(C[C@@H](C[C@H](N)[C@@H](O)C[C@H](C(=O)NCC(C)(C)C(N)=O)C(C)C)C(C)C)ccc1OC [Aliskiren]
